Results published in patent US11911468B2, “Compositions and methods of treating sarcoma lung metastasis” (CASE WESTERN RESERVE UNIVERSITY, priority 2017, dated 2024).
Entries after “also recorded” stand apart in the source; their conditions may differ.

System: K7M2-luc2 pOS (VCAM-1/α4β1 interaction)
Assay: Established pOS after K7M2-luc2 i.v., weekly intranasal blockade of VCAM-1/a4 from Day 7
Format: in vivo, Balb/c mice
Settings: 50 μg i.n. weekly from Day 7
Procedure: FIGS. 9A-C illustrate targeting site-specific VCAM-1/a4 interaction blunted established pOS growth in vivo. (A) Balb/c mice were inoculated with 5×10^5 K7M2-luc2 i.v. on Day 0, and then treated with i.n. PBS, 50 μg iVCAM-1p, or 50 μg PS/2 (anti-a4) antibody weekly starting on Day 7. (A) representative images of mice up to 35 days. […] (C) 60% and 80% of pOS mice remained tumor free 1 month after weekly i.n. treatment with PS/2 antibody (filled circle) or iVCAM-1p (filled triangle), respectively. N=5-8 in each cohort.
To strengthen the crucial link between tVCAM-1 and α4β1 (FIGS. 5-8) and pOS survival, we performed pilot experiments to test whether direct functional blockade of VCAM-1/α4β1 interaction in the lung would result in the same pOS outcome as observed with MACs depletion. In collaboration with Nicole Steinmetz in CWRU School of Engineering, we treated mice (inoculated 7 days prior with a lethal dose of K7M2 i.v.) with weekly i.n. administration of 50 μg of a VCAM-1 inhibitory peptide (iVCAM-1p; amino acid sequence: VHPKQHR (SEQ ID NO: 1)). […] These pilot observations strengthen our hypothesis that pOS-MAC critically interact through the VCAM-1/α4 axis. […] As we administered mAb via i.n. route, much of the reported side effects of chronic systemic Natalizumab exposure (such as hepatic injury and progressive multifocal leukoencephalopathy) can potentially be limited by reducing the dose and targeting locally in the lung.

Substance: VHPKQHR [iVCAM-1p]
- pOS tumor incidence: dramatic decreased
- tumor burden (relative BLI intensity, Day 7 BLI set as 1): dramatic decreased; also recorded: reduced tumor burden
- mice remaining tumor free (1 month after treatment): 80%
